Experimental data published in PubChem BioAssay AID1996.
In brackets after ≈: the same amount, converted by molar mass.

Conditions: buffer; pH 7.4; 200.0 µM

`CCCCCCCOc1ccc(C(=O)Nc2cccnc2)cc1` and `O=C(Nc1ccccc1)c1ccc(OC(=O)c2ccccc2)cc1` cannot be ordered by solubility kinetic: less than 0.3 µg/mL for the first, less than 0.7 µg/mL for the second.

Going from `COc1ccccc1NC(=O)c1ccc(-n2ccnc2)c([N+](=O)[O-])c1` to `COc1ccc(Cl)cc1NC(=O)Nc1ccccc1SC`, the solubility kinetic falls from greater than 50.7 µg/mL to less than 0.3 µg/mL.

Going from `CCOc1cccc(CN2CCN(Cc3ccc(C)o3)C(CCO)C2)c1O` (stereo unspecified) to `CCOc1ccc(C(C)=O)cc1Cn1c(=O)oc2ccccc21`, the solubility kinetic falls from greater than 56.2 µg/mL to 13.7 µg/mL (≈ 44 µM).

First: Cc1cc(C)c2c(CN3CCCCC3C)cc(=O)oc2c1.Cl (stereo unspecified)
Second: Cc1cc(C)c2c(CN3CCOCC3)cc(=O)oc2c1C
The solubility kinetic of the first is 13-fold lower: 2 µg/mL for the first, 26.5 µg/mL (≈ 92.2 µM) for the second.

Compared with `COc1ccc(C2CC(=O)N(c3ccccc3)C3=C2C(=O)CCC3)cc1` (stereo unspecified), `COc1ccc(NC(C)c2ccccc2)cc1` (stereo unspecified) is 2.9-fold lower in solubility kinetic: 48.9 µg/mL (≈ 141 µM) for the first, 16.9 µg/mL (≈ 74.3 µM) for the second.

Compared with `O=[N+]([O-])c1ccc(NCCc2ccccc2)c(Br)c1`, `CC(=O)NC(CC(=O)NCCc1ccccc1)c1ccccc1` (stereo unspecified) is 65-fold higher in solubility kinetic: 0.7 µg/mL (≈ 2.18 µM) for the first, 45.7 µg/mL (≈ 147 µM) for the second.

`C=CCn1cccc(C(=O)Nc2ccc(C)c(C)c2)c1=O` and `Cc1ccc(NC(=O)CCCN2C(=O)NC(C)(C)C2=O)cc1` are within 1.5-fold of each other in solubility kinetic: 33.4 µg/mL (≈ 118 µM) for the first, 38.7 µg/mL (≈ 128 µM) for the second.

`CC(NC(=O)/C(C#N)=C/c1ccc(C(=O)O)cc1)c1ccccc1` (stereo unspecified) and `O=C(NNC(=O)c1ccncc1)c1ccccc1` cannot be ordered by solubility kinetic: greater than 48.1 µg/mL for the first, greater than 36.2 µg/mL for the second.

`Cc1noc(NS(=O)(=O)c2ccc(NC(=O)c3cc4ccccc4o3)cc2)c1C` and `CC(C)=CC(=O)Nc1ccc(S(=O)(=O)Nc2ccccn2)cc1` are within 1.5-fold of each other in solubility kinetic: 61.6 µg/mL (≈ 150 µM) for the first, 46.2 µg/mL (≈ 139 µM) for the second.

Going from `CCCCc1nc2sc3c(c2c(=O)[nH]1)CC(C)(C)OC3` to `CCC/C(O)=C1\C(=O)CC(C)(C)CC1=NCc1ccccc1`, the solubility kinetic rises from 2.3 µg/mL (≈ 7.87 µM) to greater than 44.9 µg/mL.

First: CCC(Sc1nc2ncnc(N)c2[nH]1)C(=O)O (stereo unspecified)
Second: CCC(C)[C@H](NC(=O)NCc1ccc(F)cc1)C(=O)O (stereo partly specified)
The solubility kinetic of the first is lower: 34.1 µg/mL (≈ 135 µM) for the first, greater than 42.3 µg/mL for the second.

First: O=C(Nc1ccc(Cl)cc1)Nc1ccc2c(c1)OCO2
Second: Cc1ccc(S(=O)(=O)Nc2ccc3c(c2)OCCO3)cc1
The solubility kinetic of the first is 110-fold lower: 0.4 µg/mL (≈ 1.38 µM) for the first, 42.3 µg/mL (≈ 139 µM) for the second.

Compared with `COCCN(Cc1ccc(F)cc1)C(=O)c1cc2ccccc2oc1=O`, `O=c1oc2ccccc2c(Nc2ccc(F)cc2)c1[N+](=O)[O-]` is lower in solubility kinetic: greater than 53.3 µg/mL for the first, 8.4 µg/mL (≈ 28 µM) for the second.

First: Nc1ccccc1Sc1ccc(C(F)(F)F)cc1[N+](=O)[O-]
Second: Cl.O=C(Nc1cccc(C(F)(F)F)c1)c1cccnc1NCCO
The solubility kinetic of the first is lower: 5.6 µg/mL (≈ 17.8 µM) for the first, greater than 54.3 µg/mL for the second.

Going from `O=C(NC1=NCCS1)c1cccc(F)c1` to `O=C(Nc1cccc(C(=O)NC2CCCC2)c1)c1ccccc1`, the solubility kinetic falls from greater than 33.6 µg/mL to 21.1 µg/mL (≈ 68.4 µM).

Going from `COc1cc(C(=O)COC(=O)c2c(C)noc2C)cc(OC)c1OC` to `COc1ccc2oc(C(=O)NC(C)(C)C)c(C)c2c1`, the solubility kinetic falls from greater than 52.4 µg/mL to 1.8 µg/mL (≈ 6.89 µM).

Compared with `COc1ccc(CC(=O)Nc2nc(C)cs2)cc1`, `CCOC(=O)c1sc(NC(=O)CCc2ccccc2)nc1C` is lower in solubility kinetic: 27.2 µg/mL (≈ 104 µM) for the first, less than 0.3 µg/mL for the second.

`O=C1Nc2ccc(Br)cc2C(c2ccccc2)=NC1O` (stereo unspecified) and `O=C1NC(=O)/C(=C/c2cccc3ccccc23)S1` cannot be ordered by solubility kinetic: greater than 49.7 µg/mL for the first, greater than 38.3 µg/mL for the second.

First: Cc1ccccc1-n1cc[nH]c1=S
Second: Cc1ccc(C)n1Cc1ccccc1Cl
The solubility kinetic of the first is higher: greater than 28.5 µg/mL for the first, 1.2 µg/mL (≈ 5.46 µM) for the second.

`Cc1ccccc1CC(=O)N1CCN(C(=O)C2CCCO2)CC1` (stereo unspecified) and `Cc1cccc(C(=O)NCC(=O)N2CCCCCCC2)c1` cannot be ordered by solubility kinetic: greater than 47.5 µg/mL for the first, greater than 43.3 µg/mL for the second.

First: CC(=O)c1ccc(NC(=O)NCc2ccc(F)cc2)cc1
Second: O=C(COC(=O)/C=C/c1ccc(F)cc1)NCc1ccc2c(c1)OCO2
The solubility kinetic of the first is 1.6-fold higher: 7.8 µg/mL (≈ 27.2 µM) for the first, 4.9 µg/mL (≈ 13.7 µM) for the second.

`O=C1NCCCC1C(=O)N1CCCCC1` (stereo unspecified) and `O=c1[nH]cc(N2CCCCCC2)c(=O)[nH]1` cannot be ordered by solubility kinetic: greater than 31.5 µg/mL for the first, greater than 31.4 µg/mL for the second.

`CCCC(=O)Nc1cc2c(cc1C(C)=O)OCCO2` and `COc1ccc(C)cc1NC(=O)COC(=O)C1COc2ccccc2O1` (stereo unspecified) cannot be ordered by solubility kinetic: greater than 39.5 µg/mL for the first, greater than 53.6 µg/mL for the second.

First: COc1cccc(CNS(=O)(=O)c2csc(C(N)=O)c2)c1
Second: Cc1ccc(CNC(=O)c2cc(=O)c3cc(C)ccc3o2)cc1
The solubility kinetic of the first is higher: greater than 49 µg/mL for the first, less than 0.7 µg/mL for the second.

`CCOc1ccc(C(C)=O)cc1Cc1c(O)[nH]c(=S)[nH]c1=O` and `CC(C)NC(=S)Nc1ccc2[nH]c(=O)[nH]c2c1` cannot be ordered by solubility kinetic: 46.3 µg/mL (≈ 145 µM) for the first, greater than 37.5 µg/mL for the second.

Compared with `Cc1cc2oc(=O)c(CC(=O)NCCCO)c(C)c2c2occ(C(C)(C)C)c12`, `Cc1cc(=O)oc2cc(OCC(=O)NC3CCCCC3)c(Cl)cc12` is 6.1-fold lower in solubility kinetic: 28 µg/mL (≈ 72.6 µM) for the first, 4.6 µg/mL (≈ 13.1 µM) for the second.

First: Cc1ccc(CNc2ccc3c(c2)nc(C)n3C)cc1
Second: Cc1nc2ccc(C(=O)Nc3ccc(N(C)C)cc3)cc2s1
The solubility kinetic of the first is 9.3-fold higher: 38.3 µg/mL (≈ 144 µM) for the first, 4.1 µg/mL (≈ 13.2 µM) for the second.

Going from `CCCCN=CC1=C(O)CC(c2ccccc2)CC1=O` (stereo unspecified) to `CC(=O)NC(CC(=O)N(C)C1CCCCC1)c1ccccc1` (stereo unspecified), the solubility kinetic rises from 34.9 µg/mL (≈ 129 µM) to greater than 45.4 µg/mL.

Going from `Cc1cccc(C(=O)NCCNC(=O)c2cccnc2)c1` to `O=c1cc(CO)oc(C(Nc2ccccn2)c2ccccc2Cl)c1O` (stereo unspecified), the solubility kinetic rises from 37.5 µg/mL (≈ 132 µM) to greater than 53.8 µg/mL.

`Oc1ccc(Cl)cc1CNc1ccccn1` and `N#C/C(=C\C=C\c1ccccc1)C(=O)N1CCCC1` are within 1.5-fold of each other in solubility kinetic: 6.5 µg/mL (≈ 27.7 µM) for the first, 7.3 µg/mL (≈ 28.9 µM) for the second.

For `CC(C)C1N(C(N)=S)N=CC1(C)C` (stereo unspecified), the solubility kinetic was greater than 29.9 µg/mL.
